Results: patent publication US5096923A, “Novel squalene synthetase inhibitors” (Merck & Co., Inc., priority 1990, dated 1992)
≈ marks a conversion by molar mass, not a printed value.

Assays:
Crypt. neoformans MY1051 = assay: Antifungal microtiter inhibitor dilution assay (yeast), Crypt. neoformans; type: cell-based; details: Cryptococcus neoformans, 24 hours, 28° C., read-out: Minimum Inhibitory Concentration
Description: (§1) The compounds are particularly active towards filamentous fungi and yeasts including Candida albicans and Crypt neoformans. The sensitivity of filamentous fungi and yeast was determined using inhibitor dilution assays in microtiter format. The compounds were dissolved in DMSO at 2 mg/ml and serially diluted in 0.1M phosphate buffer, pH 7.0 in the microtiter dish from 100 to 0.006 μg/ml. A standardized spore suspension for testing the filamentous fungi was prepared by inoculating Antibiotic Medium #3 containing 1.5% agar with spores such that 1.5×10^3 colony forming units were added per well. The microtiter wells were filled with 50 μl of buffer containing compound and 50 μl of inoculated medium. The sensitivity of yeasts was determined by inoculating yeast nitrogen base containing 1% dextrose (YNB/G) with aliquots of an overnight yeast culture grown in yeast morphology (YM) media at 35° C. and diluting in YNB/G to yield a final concentration of 1.5-7.5×10^3 colony forming units/well. One hundred fifty μl of inoculated media was added per well. To test the sensitivity of yeast, compound was solubilized in 10 percent aqueous DMSO at 2.56 mg/ml. The compound was diluted serially in YNB/G from 128 to 0.06 μg/ml. The wells were filled with 150 μl of drug containing media. […]

Pen. italicum MF2819 = assay: Antifungal microtiter inhibitor dilution assay (filamentous fungi), Pen. italicum; type: cell-based; details: Penicillium italicum, 42 hours, 28° C., read-out: Minimum Inhibitory Concentration
Description: as §1

Coch. miyabeanus MF4626 = assay: Antifungal microtiter inhibitor dilution assay (filamentous fungi), Coch. miyabeanus; type: cell-based; details: Bipolaris oryzae, MF4626, 42 h, read-out: Minimum Inhibitory Concentration
Description: as §1

C. parapsilosis MY1010 = assay: Antifungal microtiter inhibitor dilution assay (yeast), C. parapsilosis; type: cell-based; details: Lodderomyces parapsilosis, 24 hours, 28° C., read-out: Minimum Inhibitory Concentration
Description: as §1

A. flavus MF383 = assay: Antifungal microtiter inhibitor dilution assay (filamentous fungi), A. flavus; type: cell-based; details: Aspergillus flavus, 42 hours, 28° C., read-out: Minimum Inhibitory Concentration
Description: as §1

C. tropicalis MY1012 = assay: Antifungal microtiter inhibitor dilution assay (yeast), C. tropicalis; type: cell-based; details: Candida tropicalis, 24 hours, 28° C., read-out: Minimum Inhibitory Concentration
Description: as §1

Fus. oxysporum MF4014 = assay: Antifungal microtiter inhibitor dilution assay (filamentous fungi), Fus. oxysporum; type: cell-based; details: Fusarium oxysporum, 42 hours, 28° C., read-out: Minimum Inhibitory Concentration
Description: as §1

C. albicans MY1055 = assay: Antifungal microtiter inhibitor dilution assay (yeast), C. albicans; type: cell-based; details: Candida albicans, 24 hours, 28° C., read-out: Minimum Inhibitory Concentration
Description: as §1

A. niger MF442 = assay: Antifungal microtiter inhibitor dilution assay (filamentous fungi), A. niger; type: cell-based; details: Aspergillus niger, 42 hours, 28° C., read-out: Minimum Inhibitory Concentration
Description: as §1

A. fumigatus MF4839 = assay: Antifungal microtiter inhibitor dilution assay (filamentous fungi), A. fumigatus; type: cell-based; details: Aspergillus fumigatus, 42 hours, 28° C., read-out: Minimum Inhibitory Concentration
Description: as §1

Squalene Synthetase = target: T1, Squalene Synthetase (Rattus norvegicus, UniProt Q02769); assay: Squalene synthetase assay (rat liver microsomes, [4-14C]farnesyl-pyrophosphate); type: biochemical; details: 30° C., 20 minutes, read-out: Squalene Synthetase ID50
T1 construct: The livers from these rats were homogenized in 5 volumes (ml/g) of ice cold 50 mM HEPES; from tissue; host or cells: rat liver microsomes (male Charles River CD rats fed 0.1% lovastatin for 4 days)
T1 sequence (Q02769 1-416): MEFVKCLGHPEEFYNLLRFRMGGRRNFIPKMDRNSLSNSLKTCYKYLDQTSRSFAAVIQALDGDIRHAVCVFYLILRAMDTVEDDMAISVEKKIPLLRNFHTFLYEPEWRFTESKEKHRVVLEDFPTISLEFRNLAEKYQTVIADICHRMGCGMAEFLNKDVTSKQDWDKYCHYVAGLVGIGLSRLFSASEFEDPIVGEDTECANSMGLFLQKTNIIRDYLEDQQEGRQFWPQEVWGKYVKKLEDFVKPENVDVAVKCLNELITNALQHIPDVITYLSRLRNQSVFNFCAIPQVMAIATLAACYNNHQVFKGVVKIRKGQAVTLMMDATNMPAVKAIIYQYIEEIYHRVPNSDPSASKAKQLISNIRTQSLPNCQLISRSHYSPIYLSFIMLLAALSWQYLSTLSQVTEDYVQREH
Description: The intrinsic squalene synthetase inhibitory activity of representative compounds of this invention was measured by the standard in vitro protocol described below:
Male, Charles River CD rats (120 to 150 g) were fed a diet containing 0.1% lovastatin for 4 days. The livers from these rats were homogenized in 5 volumes (ml/g) of ice cold 50 mM HEPES (4-(2 -hydroxyethyl)-1-piperazine-ethanesulfonic acid), 5 mM EDTA(ethylenediaminetetraacetic acid) pH 7.5 with a Potter-Elvehjem type tissue grinder. The homogenate was centrifuged twice at 20,000×g for 15 minutes at 4° C., discarding the pellet each time. The supernatant was then centrifuged at 100,000×g for 1 hour at 4° C. The resulting microsomal pellet was resuspended in a volume of the above homogenizing buffer equal to one-fifth the volume of the original homogenate. This microsomal preparation has a protein concentration of about 7 mg/ml. The microsomal suspensions were stored in aliquots at -70° C. Squalene synthetase activity in these aliquots is stable for at least several months.
Prenyl transferase was purified to use in the enzymatic synthesis of radiolabelled farnesyl pyrophosphate. Prenyl transferase was assayed by the method of Rilling (Methods in Enzymology 110, 125-129 (1985)) and a unit of activity is defined as the amount of enzyme that will produce 1 μmole of farnesyl pyrophosphate per minute at 30° C. in the standard assay. […]

Compound: C=C(CCC12OC(C(=O)OC)C(O)(C(=O)OC)C(C(=O)OC)(O1)C(OC(=O)C=CC(C)CC(C)CC)C2O)C(OC(C)=O)C(C)Cc1ccccc1 (centres unmarked) [Compound B]
- MIC (Crypt. neoformans MY1051): 1 µg/mL (≈ 1.36 µM)
- MIC (Pen. italicum MF2819): 6.2 µg/mL (≈ 8.46 µM)
- MIC (Coch. miyabeanus MF4626): 1.6 µg/mL (≈ 2.18 µM)
- MIC (C. parapsilosis MY1010): 8 µg/mL (≈ 10.9 µM)
- MIC (A. flavus MF383): 6.2 µg/mL (≈ 8.46 µM)
- MIC (C. tropicalis MY1012): 4 µg/mL (≈ 5.46 µM)
- MIC (Fus. oxysporum MF4014): > 100 µg/mL
- MIC (C. albicans MY1055): 8 µg/mL (≈ 10.9 µM)
- MIC (A. niger MF442): 25 µg/mL (≈ 34.1 µM)
- MIC (A. fumigatus MF4839): 6.2 µg/mL (≈ 8.46 µM)
- IC50 (Squalene Synthetase): 5 µM
